Data as given in patent US20140072557A1, “MEDICINAL AGENT FOR SUPPRESSING MALIGNANT TUMOR METASTASIS” (priority 2011, published 2014).

Columns and labels:
A549 cells [1] = assay: Mouse tail vein injection metastasis test, GFP-labeled A549 cells; format: in vivo; conditions: hANP 0.5 μg/kg/min by subcutaneous osmotic pump for 4 weeks, observed 8 weeks after injection, Balb/c (nu/nu) mice
Procedure: Six-week-old male Balb/c (nu/nu) mice were used (purchased from Japan SLC, Inc.).
The osmotic pumps used were MODEL2004 (for 28-day administration) made by ALZET (Cupertino, Calif.).
Mice into which an osmotic pump containing 0.9% physiological saline was subcutaneously implanted in the back were assigned to the control group. Similarly, mice into which an osmotic pump containing hANP prepared for administration at 0.5 μg/kg/min was subcutaneously implanted were assigned to the ANP group. Injection of a tumor cell suspension was performed on the day after the osmotic pump implantation.
As the tumor cells, A549 cell line labeled with GFP (Green Fluorescent Protein) was purchased from Wako Pure Chemical Industries, Ltd., and cultured in RPMI1640 (Life Technologies Corp.) containing 10% FCS under 5% CO2 at 37° C. The cells in a subconfluent state were treated with EDTA-trypsin, centrifuged, and then suspended in serum free DMEM so as to be 1×10^7 cells/mL. The A549 cell suspension (100 μL/body, 1×10^6 cells) was injected to the tail vein of the mice.

A549 cells [2] = assay: Apoptosis induction, cell viability by trypan blue staining, A549 cells; format: cell-based; conditions: hANP 1, 5, 10 μM added 4 times, 48 hours
Procedure: Using a 96-well dish, the A549 cells were cultured at 1×10^4 cells/well. The culture medium was replaced with DMEM culture medium free from FBS the next day, and after 24-hours culture, the following experiment was conducted.
To the culture medium, a hANP solution prepared by serial dilution was added so that the final concentration of hANP would be 1, 5, or 10 μM (for the control group, the same amount of physiological saline was added). Further, 2, 4, and 6 hours later, the same amounts of the hANP solutions at the same concentrations were added (for the control group, the same amount of physiological saline was added) (4 times in total). 48 hours later, trypan blue staining was performed and the cell viability (number of living cells/total number of all cells) was determined with the use of an automatic cell counter Countess (registered trademark) (Invitrogen).

A549 cells [3] = assay: Motility, wound healing assay, A549 cells; format: cell-based; conditions: 1 μM hANP, TGF-β1 1 ng/mL, 24 hours
Procedure: Using a 6-well dish, the A549 cells were cultured at 4×10^5 cells/well, and the culture medium was replaced with DMEM culture medium free from FBS the next day. After 24 hours of culture, the cells were divided into 3 groups (the control group, the TGF-(31 group, and the TGF-β1+hANP group), and used in the following experiment.
To the culture medium for the TGF-β1+hANP group, the hANP solution was added so that the final concentration of hANP would be 1 μM. For the control group and the TGF-β1 group, the same amount of physiological saline was added to the culture medium. Two hours later, a wound was created at the center of each well with the use of a 200 μL-pipette tip. Immediately after the wound creation, a photograph of each well was taken under a microscope (FIG. 7A). To the TGF-β+hANP group and the TGF-β1 group, TGF-β1 was added so that the final concentration would be 1 ng/mL. After 24-hour culture, a photograph of the same part was taken again to calculate the average ratio of the wounded area width difference between immediately after the wound creation and after 24-hour culture (migration ratio: % wounded area filled) by the following formula.
Migration ratio (%)=(initial wound width−wound width after 24-hour culture)/(initial wound width)×100

mouse melanoma B16-F10 = assay: Mouse tail vein injection metastasis test, mouse melanoma B16-F10; format: in vivo, mice; conditions: 0.5 μg/kg/min by subcutaneous osmotic pump, 2 weeks
Procedure: 6-week-old male […] mice were used (purchased from Japan SLC, Inc.). Mouse melanoma B16-F10 was purchased from ATCC, and cultured in DMEM (Life Technologies Corp.) containing 10% FCS under 5% CO2 at 37° C. The cells in a subconfluent state were treated with EDTA-trypsin, centrifuged, and then suspended in serum free DMEM so as to be 5×10^6 cells/mL. The melanoma cell suspension (100 μL/mouse, 5×10^5 cells) was injected to the tail vein of the mice. The osmotic pumps used were MODEL2002 (for 14-day administration) made by ALZET (Cupertino, Calif,.).
Mice into which an osmotic pump containing 0.9% physiological saline was subcutaneously implanted in the back were assigned to the control group. Similarly, an osmotic pump containing hANP prepared for administration at 0.5 μg/kg/min was subcutaneously implanted into each mouse in the ANP group, an osmotic pump containing mouse BNP prepared for administration at 0.5 μg/kg/min was subcutaneously implanted into each mouse in the BNP group, and an osmotic pump containing hCNP-22 prepared for administration at 2.5 μg/kg/min was subcutaneously implanted into each mouse in the CNP group. To the mice in the sildenafil group, sildenafil citrate at a dosage of 20 mg/kg was intraperitoneally administered once daily. […]

lung cancer patients = assay: Cancer recurrence after cancer resection surgery in lung cancer patients; format: in vivo, human; conditions: hANP 0.025 μg/kg/min continuous from surgery for 3 days, about 2 years follow-up, stages IA-III
Procedure: It is reported that lung cancer patients whose BNP level in the blood is 30 pg/mL or higher are at high risk of postsurgical complications after a cancer removal surgery. In this experiment, lung cancer patients were measured for the BNP level in the blood before cancer removal surgery. A part of the patients having the BNP level in the blood of 30 pg/mL or higher and patients judged to be at high risk of postsurgical complications by the doctor in charge were assigned to the hANP group (52 patients in total; cancer stage breakdown was IA: 26 patients […], IB: 16 patients […], II: 7 patients […], and III: 3 patients (6%)). The control group consisted of patients assigned regardless of the BNP level in the blood (287 patients in total, cancer stage breakdown was IA: 155 patients (54%), IB: 65 patients (23%), II: 35 patients (12%), and III: 32 patients (11%)). To the hANP group, hANP (trade name: HAMP for INJECTION 1000, non-bolus, made by DAIICHI SANKYO Co., Ltd.) was continuously administered at 0.025 μg/kg/min starting during the surgery of lung cancer and the administration continued for 3 days after surgery. Before the surgery and for 4 days after surgery, each patient was measured for the blood pressure (systolic and diastolic), the heart rate, and the urine volume. […]

`CC[C@H](C)[C@@H]1NC(=O)[C@H](CCCNC(=N)N)NC(=O)[C@H](CC(=O)O)NC(=O)[C@H](CCSC)NC(=O)[C@H](CCCNC(=N)N)NC(=O)CNC(=O)CNC(=O)[C@H](Cc2ccccc2)NC(=O)[C@@H](NC(=O)[C@H](CO)NC(=O)[C@H](CO)NC(=O)[C@H](CCCNC(=N)N)NC(=O)[C@H](CCCNC(=N)N)NC(=O)[C@H](CC(C)C)NC(=O)[C@@H](N)CO)CSSC[C@@H](C(=O)N[C@@H](CC(N)=O)C(=O)N[C@@H](CO)C(=O)N[C@@H](Cc2ccccc2)C(=O)N[C@@H](CCCNC(=N)N)C(=O)N[C@@H](Cc2ccc(O)cc2)C(=O)O)NC(=O)CNC(=O)[C@H](CC(C)C)NC(=O)CNC(=O)[C@H](CO)NC(=O)[C@H](CCC(N)=O)NC(=O)[C@H](C)NC(=O)CNC1=O` [hANP, carperitide] was tested, and the “lung metastasis (number of nodules)” value (A549 cells [1]) was “significantly suppressed”, the “number of living cancer cells (cell viability)” value (A549 cells [2]) was “decreased in a hANP-concentration-dependent manner” and the “motility (migration ratio, % wounded area filled)” value (A549 cells [3]) was “significantly suppressed”. The “lung metastasis of melanoma (number of nodules)” value (mouse melanoma B16-F10) was “significantly suppressed” and the “early recurrence of cancer (recurrence-free survival)” value (lung cancer patients) was “early recurrence was not observed”.
